Experimental data published in patent publication US20240269139A1, “COMPOUNDS FOR TARGETED PROTEIN DEGRADATION OF KINASES” (DANA-FARBER CANCER INSTITUTE, INC., priority 2020, published 2024).
Like-named read-outs stand apart in the source and are kept apart here.

What was measured:
Assay type in all cases: cell-based
[1] = target: T1, protein kinases (human kinome) (Homo sapiens, UniProt O94768); conditions: for logFC STK17B (O94768): direction down; for logFC: STK17B (O94768)
T1 sequence (O94768 1-372): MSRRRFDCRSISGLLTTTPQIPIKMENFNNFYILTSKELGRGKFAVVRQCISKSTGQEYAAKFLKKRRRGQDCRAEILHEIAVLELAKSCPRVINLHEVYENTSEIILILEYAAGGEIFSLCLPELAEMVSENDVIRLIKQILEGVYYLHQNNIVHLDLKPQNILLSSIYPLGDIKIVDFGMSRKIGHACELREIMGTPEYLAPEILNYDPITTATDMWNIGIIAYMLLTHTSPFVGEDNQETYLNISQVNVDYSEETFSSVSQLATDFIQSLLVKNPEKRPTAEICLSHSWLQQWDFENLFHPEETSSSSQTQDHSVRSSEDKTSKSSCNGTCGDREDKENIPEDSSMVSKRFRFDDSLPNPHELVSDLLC

[2] = target: T2, protein kinases (human kinome) (Homo sapiens, UniProt P33981); conditions: for logFC TTK: Accession P33981
T2 sequence (P33981 1-857): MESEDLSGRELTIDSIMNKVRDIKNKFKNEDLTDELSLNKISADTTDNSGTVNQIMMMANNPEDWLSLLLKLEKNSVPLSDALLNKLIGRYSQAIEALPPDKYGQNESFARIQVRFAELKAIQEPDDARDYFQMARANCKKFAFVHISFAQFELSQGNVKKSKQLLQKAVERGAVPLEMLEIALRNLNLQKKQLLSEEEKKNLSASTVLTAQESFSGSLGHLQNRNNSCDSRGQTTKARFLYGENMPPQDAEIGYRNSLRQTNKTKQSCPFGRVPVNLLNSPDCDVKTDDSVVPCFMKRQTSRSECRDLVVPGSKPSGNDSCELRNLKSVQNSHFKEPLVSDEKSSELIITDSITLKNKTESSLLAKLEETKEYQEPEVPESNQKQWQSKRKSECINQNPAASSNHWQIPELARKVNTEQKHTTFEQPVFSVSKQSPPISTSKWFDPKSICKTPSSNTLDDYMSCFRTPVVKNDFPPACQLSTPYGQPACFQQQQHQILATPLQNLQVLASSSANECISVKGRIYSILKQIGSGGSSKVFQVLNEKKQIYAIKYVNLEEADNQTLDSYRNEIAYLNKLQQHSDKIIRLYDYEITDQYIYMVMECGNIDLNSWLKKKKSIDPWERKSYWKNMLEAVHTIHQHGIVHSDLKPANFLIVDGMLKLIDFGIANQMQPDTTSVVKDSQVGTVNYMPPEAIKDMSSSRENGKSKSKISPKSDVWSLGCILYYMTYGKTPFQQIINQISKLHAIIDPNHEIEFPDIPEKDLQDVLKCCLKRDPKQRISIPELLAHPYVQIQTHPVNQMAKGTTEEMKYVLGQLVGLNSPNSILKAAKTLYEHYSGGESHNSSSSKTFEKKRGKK

[3] = target: T3, protein kinases (human kinome) (Homo sapiens, UniProt Q8TAS1)
T3 sequence (Q8TAS1 1-419): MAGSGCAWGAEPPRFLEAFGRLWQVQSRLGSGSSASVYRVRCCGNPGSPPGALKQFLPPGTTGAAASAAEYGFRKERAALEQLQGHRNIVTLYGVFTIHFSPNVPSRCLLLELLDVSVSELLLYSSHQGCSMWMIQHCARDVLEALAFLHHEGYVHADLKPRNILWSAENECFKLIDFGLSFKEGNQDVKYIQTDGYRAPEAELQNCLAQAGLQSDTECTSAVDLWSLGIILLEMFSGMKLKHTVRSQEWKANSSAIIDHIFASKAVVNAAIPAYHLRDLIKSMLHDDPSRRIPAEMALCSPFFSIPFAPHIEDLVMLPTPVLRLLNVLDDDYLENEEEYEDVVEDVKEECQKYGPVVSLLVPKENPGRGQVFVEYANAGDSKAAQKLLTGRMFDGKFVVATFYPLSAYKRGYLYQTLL

O=C(COc1cccc2c1C(=O)N(C1CCC(=O)NC1=O)C2=O)NCCCCCCCN1CCc2cc(Nc3ncc(C4CC4)c(NCCCNC(=O)C4CCC4)n3)ccc2C1 (centres unmarked) [BSJ.04.178]
logFC STK17B (O94768) ([1]; Experiment wp134): −1.604
logFC ([1]; experiment wp134): −1.604

Cc1ncsc1-c1ccc([C@H](C)NC(=O)[C@@H]2C[C@@H](O)CN2C(=O)[C@@H](NC(=O)CCCCCN2CCc3cc(Nc4ncc(C5CC5)c(NCCCNC(=O)C5CCC5)n4)ccc3C2)C(C)(C)C)cc1 [BSJ.05.026]
logFC STK17B (O94768) ([1]; Experiment wp195): −0.9299
logFC ([1]; experiment wp195): −0.9299

CS(=O)(=O)Nc1cccc(-c2csc3cnc(Nc4ccc(N5CCN(CCCCCOc6cccc7c6C(=O)N(C6CCC(=O)NC6=O)C7=O)CC5)cc4)nc23)c1 (centres unmarked) [DB0614, N-(3-(2-((4-(4-(5-((2-(2,6-Dioxopiperidin-3-yl)-1,3-dioxoisoindolin-4-yl)oxy)pentyl)piperazin-1-yl)phenyl)amino)thieno[3,2-d]pyrimidin-7-yl)phenyl)methanesulfonamide]
logFC STK17B (O94768) ([1]; Experiment wp045): −0.9829
logFC STK17B (O94768) ([1]; Experiment wp117): −0.7771
logFC ([1]; experiment wp045): −0.9829
logFC ([1]; experiment wp117): −0.7771

Cc1ccc(NC(=O)c2cccc(C(F)(F)F)c2)cc1N1Cc2cnc(Nc3ccc(N4CCN(Cc5cn(CCCCCOc6cccc7c6C(=O)N(C6CCC(=O)NC6=O)C7=O)nn5)CC4)nc3)nc2N(C)C1=O (centres unmarked) [DB0646, N-(3-(7-((6-(4-((1-(5-((2-(2,6-Dioxopiperidin-3-yl)-1,3-dioxoisoindolin-4-yl)oxy)pentyl)-1H-1,2,3-triazol-4-yl)methyl)piperazin-1-v)pyridin-3-yl)amino)-1-methyl-2-oxo-1,4-dihydropyrimido[4,5-d]pyrimidin-3(2H)-yl)-4-methylphenyl)-3-(trifluoromethyl)benzamide]
logFC TTK ([2]; experiment wp045): −0.5757
logFC TTK ([2]; experiment wp107): −0.372
logFC TTK ([2]; experiment wp117): −0.4267
logFC TTK ([2]; experiment wp152): −0.5131
logFC TTK ([2]; experiment wp160, 4 hr): −0.513
logFC TTK ([2]; experiment wp160, 8 hr): −0.7057
logFC TTK (P33981) ([2]; experiment wp045): −0.5757
logFC TTK (P33981) ([2]; experiment wp107): −0.372
logFC TTK (P33981) ([2]; experiment wp117): −0.4267
logFC TTK (P33981) ([2]; experiment wp152): −0.5131
logFC TTK (P33981) ([2]; experiment wp160, 4 hr): −0.513
logFC TTK (P33981) ([2]; experiment wp160, 8 hr): −0.7057
logFC UHMK1 ([3]; Accession Q8TAS1, experiment wp107, direction down): −0.3263
logFC UHMK1 ([3]; Accession Q8TAS1, experiment wp117, direction down): −0.4722
logFC UHMK1 ([3]; Accession Q8TAS1, experiment wp160, 2 hr, direction down): −0.4468
logFC UHMK1 ([3]; Accession Q8TAS1, experiment wp160, 4 hr, direction down): −0.7551
logFC UHMK1 ([3]; Accession Q8TAS1, experiment wp160, 8 hr, direction down): −0.5196
logFC UHMK1 ([3]; UHMK1 (Q8TAS1), experiment wp045): −0.3945
logFC UHMK1 ([3]; UHMK1 (Q8TAS1), experiment wp107): −0.3263
logFC UHMK1 ([3]; UHMK1 (Q8TAS1), experiment wp117): −0.4722
logFC UHMK1 ([3]; UHMK1 (Q8TAS1), experiment wp160, 2 hr): −0.4468
logFC UHMK1 ([3]; UHMK1 (Q8TAS1), experiment wp160, 4 hr): −0.7551
logFC UHMK1 ([3]; UHMK1 (Q8TAS1), experiment wp160, 8 hr): −0.5196
logFC UHMK1 (Q8TAS1) ([3]; experiment wp045): −0.3945

Cc1ccc(NC(=O)c2cccc(C(F)(F)F)c2)cc1N1Cc2cnc(Nc3ccc(N4CCN(CCCOc5cccc6c5C(=O)N(C5CCC(=O)NC5=O)C6=O)CC4)nc3)nc2N(C)C1=O (centres unmarked) [DB0662]
logFC UHMK1 ([3]; Accession Q8TAS1, experiment wp168, direction down): −0.3949
logFC UHMK1 ([3]; UHMK1 (Q8TAS1), experiment wp168): −0.3949

Cc1ncsc1-c1ccc([C@H](C)NC(=O)[C@@H]2C[C@@H](O)CN2C(=O)[C@@H](NC(=O)CCOCCOCCN2CCN(c3ccc(Nc4ncc(Cl)c(Nc5ccccc5S(=O)(=O)C(C)C)n4)cc3)CC2)C(C)(C)C)cc1 [FMF.06.098.1]
logFC UHMK1 ([3]; Accession Q8TAS1, experiment wp108, direction down): −0.3878
logFC UHMK1 ([3]; UHMK1 (Q8TAS1), experiment wp108): −0.3878

Cc1cnc(Nc2ccc(N3CCN(CCCCCCC(=O)N[C@H](C(=O)N4C[C@H](O)C[C@H]4C(=O)N[C@@H](C)c4ccc(-c5scnc5C)cc4)C(C)(C)C)CC3)cc2)nc1Nc1cccc(S(=O)(=O)NC(C)(C)C)c1 [JWG.123]
logFC STK17B (O94768) ([1]; Experiment wp195): −1.872
logFC ([1]; experiment wp195): −1.872

CCc1cnn2c(N(Cc3ccc(N)nc3)C(=O)CCOCCOCCOCCNC(=O)CNc3cccc4c3C(=O)N(C3CCC(=O)NC3=O)C4=O)cc(N3CCCC[C@H]3CCO)nc12 (some centres unmarked) [MFH.5.115.2]
logFC TTK ([2]; experiment wp076): −0.3249
logFC TTK (P33981) ([2]; experiment wp076): −0.3249
logFC UHMK1 ([3]; Accession Q8TAS1, experiment wp076, direction down): −0.8774
logFC UHMK1 ([3]; UHMK1 (Q8TAS1), experiment wp076): −0.8774

CS(=O)(=O)Nc1cccc(-c2csc3cnc(Nc4ccc(N5CCN(CCOCCOCCOc6cccc7c6C(=O)N(C6CCC(=O)NC6=O)C7=O)CC5)cc4)nc23)c1 (centres unmarked) [RSS0628]
logFC STK17B (O94768) ([1]; Experiment wp045): −1.075
logFC ([1]; experiment wp045): −1.075

Cc1ncsc1-c1ccc([C@H](C)NC(=O)[C@@H]2C[C@@H](O)CN2C(=O)[C@@H](NC(=O)CCCCCN2CCN(c3ccc(Nc4ncc5scc(-c6cccc(NS(C)(=O)=O)c6)c5n4)cc3)CC2)C(C)(C)C)cc1 [RSS0680, (2S,4R)-1-((S)-3,3-Dimethyl-2-(6-(4-(4-((7-(3-(methylsulfonamido)phenyl)thieno[3,2-d]pyrimidin-2-yl)amino)phenyl)piperazin-1-yl)hexanamido)butanoyl)-4-hydroxy-N—((S)-1-(4-(4-methylthiazol-5yl)phenyl)ethyl)pyrrolidine-2-carboxamide]
logFC STK17B (O94768) ([1]; Experiment wp080): −1.375
logFC STK17B (O94768) ([1]; Experiment wp117): −1.373
logFC ([1]; experiment wp080): −1.375
logFC ([1]; experiment wp117): −1.373

NC(=O)c1c(F)cccc1Nc1nc(Nc2ccc(S(=O)(=O)NCCOCCOCCOCCOCCNc3cccc4c3C(=O)N(C3CCC(=O)NC3=O)C4=O)cc2)ncc1Br (centres unmarked) [TMX.02.138]
logFC TTK ([2]; experiment wp146): −0.6178
logFC TTK (P33981) ([2]; experiment wp146): −0.6178

Cc1cc(Nc2ncc(Br)c(Nc3cccc(F)c3C(N)=O)n2)ccc1S(=O)(=O)NCCOCCOCCOCCOCCNc1cccc2c1C(=O)N(C1CCC(=O)NC1=O)C2=O (centres unmarked) [TMX.02.174]
logFC TTK ([2]; experiment wp146): −0.7225
logFC TTK (P33981) ([2]; experiment wp146): −0.7225

Nc1ncc(-c2ccc(S(=O)(=O)N(CCCNC(=O)CCOCCOCCOCCOCCOCCNc3cccc4c3C(=O)N(C3CCC(=O)NC3=O)C4=O)C3CC3)cc2)cc1-c1ccc2c(c1)CCNC2=O (centres unmarked) [WH.10417.099]
logFC STK17B (O94768) ([1]; Experiment wp056): −1.507
logFC STK17B (O94768) ([1]; Experiment wp103): −1.292
logFC STK17B (O94768) ([1]; Experiment wp105): −0.7924
logFC STK17B (O94768) ([1]; Experiment wp107): −1.472
logFC STK17B (O94768) ([1]; Experiment wp172): −1.234
logFC ([1]; experiment wp056): −1.507
logFC ([1]; experiment wp103): −1.292
logFC ([1]; experiment wp105): −0.7924
logFC ([1]; experiment wp107): −1.472
logFC ([1]; experiment wp172): −1.234
